From ChEMBL document CHEMBL1142310, “Design and synthesis of substituted 4-oxo-4,5,6,7-tetrahydropyrazolo[1,5-a]pyrazine-2-carboxamides, novel HIV-1 integrase inhibitors” (Bioorg Med Chem Lett, 2008) come the findings set out here.

The nature of assay [1]: Inhibition of HIV1 integrase strand transfer activity. More on the design: species or system Human immunodeficiency virus 1.
Assay [2] has as its system Human immunodeficiency virus 1. As to the kind of experiment: Antiviral activity against HIV1 infected MT4 cells in presence of 50% NHS. The settings on record: Human immunodeficiency virus 1, MT4. Format: functional, organism-based.
In assay [3] the test system is Human immunodeficiency virus 1. The assay is described as follows: Antiviral activity against HIV1 infected MT4 cells in presence of 10% FBS. It is filed as functional. The settings on record: Human immunodeficiency virus 1, MT4.

A value given as a limit tells only on which side of the number the result lay.

As for `CNC(=O)c1nn2c(c1O)C(=O)N(Cc1ccc(F)cc1)CC2c1ccccc1` (stereo not given), in assay [1], half-maximal inhibition (IC50) required 130 nM. Besides, the IC95 in assay [2] was more than 10000 nM; in assay [3], 10000 nM.

On to `CNC(=O)c1nn2c(c1O)C(=O)N(Cc1ccc(F)cc1)CC2`, for which the IC50 is 40 nM in assay [1] and more than 10000 nM in assay [2]. Moreover, the 95% effect concentration (IC95) in assay [3] came to 5000 nM.

The compound `CN1C(=O)c2c(O)c(C(=O)NCc3ccc(F)cc3)nn2CC1c1ccccc1` (stereo not given) came in with an IC50 in assay [1] of 110 nM.

In the case of `CN1CCCn2nc(C(=O)NCc3ccc(F)cc3)c(O)c2C1=O`, the IC50 in assay [1] worked out at 470 nM.

`CNC(=O)c1cc(F)ccc1CNC(=O)c1nn2c(c1O)C(=O)N(C)C[C@@H]2c1ccccc1` gave an IC50 in assay [1] of 74 nM. Besides, the IC95 in assay [2] and in assay [3] was 63 nM throughout.

Turning to `CN1CCn2nc(C(=O)NCc3ccc(F)cc3)c(O)c2C1=O`, the IC50 in assay [1] was not above 10 nM. The 95% effect concentration (IC95) in assay [2] turned out to be 2500 nM; in assay [3], 630 nM.

`CN1CC(c2cccnc2)n2nc(C(=O)NCc3ccc(F)cc3)c(O)c2C1=O` (stereo not given) showed an IC50 in assay [1] not above 10 nM. In addition, the concentration for an effect of 95% (IC95) turned out to be 500 nM in assay [2] and 250 nM in assay [3].

`CN1CC(c2ccccc2)n2nc(C(=O)NCc3ccc(F)cc3)c(O)c2C1=O` (stereo not given) had an IC50 in assay [1] not above 10 nM. For the same compound, the IC95 was 310 nM in assay [2] and 50 nM in assay [3].

`CC1CN(C)C(=O)c2c(O)c(C(=O)NCc3ccc(F)cc3)nn21` (stereo not given) had a half-inhibitory concentration (IC50) in assay [1] of 13 nM.

`CC(C)C1CN(C)C(=O)c2c(O)c(C(=O)NCc3ccc(F)cc3)nn21` (stereo not given) came in with a concentration for half-maximal inhibition (IC50) in assay [1] of 20 nM. The IC95 was 250 nM in assay [2] and 63 nM in assay [3].

`CNC(=O)c1cc(F)ccc1CNC(=O)c1nn2c(c1O)C(=O)N(C)C[C@H]2c1ccccc1` came in with an IC50 in assay [1] of 62 nM. The IC95 in assay [2] and in assay [3] was 250 nM throughout.

In turn, `CN1CC(c2csc(N)n2)n2nc(C(=O)NCc3ccc(F)cc3)c(O)c2C1=O` (stereo not given) returned a concentration for half-maximal inhibition (IC50) in assay [1] not above 10 nM. Besides, the figures for the 95% effect concentration (IC95) in assay [2] and in assay [3] were 1000 nM and 500 nM, respectively.

In assay [1], `CN1CCn2cc(C(=O)NCc3ccc(F)cc3)c(O)c2C1=O` came in with a concentration for half-maximal inhibition (IC50) of 400 nM.

Take `CNC(=O)c1cccc(C2CN(C)C(=O)c3c(O)c(C(=O)NCc4ccc(F)cc4)nn32)c1` (stereo not given): the 50% inhibitory concentration (IC50) in assay [1] is not above 10 nM. Further, the IC95 in assay [2] and in assay [3] was 1000 nM in each case.

Compound `CC1Cn2nc(C(=O)NCc3ccc(F)cc3)c(O)c2C(=O)N1C` (stereo not given) came in with a half-maximal inhibitory concentration (IC50) in assay [1] of 40 nM.

As usually defined, the IC50 is the concentration that gives 50% inhibition. Usually IC95 stands for the point of the concentration-response curve where the effect stands at 95%.
